The values that follow are results of earlier work, collected in publication PMC5941251 (Molecular Pharmaceutics, 2018).

SMILES strings stand for the structures.

On to `CC1(C)C(/C=C/C=C/C=C/C=C2\N(CCCCS(=O)(=O)O)c3ccc4ccccc4c3C2(C)C)=[N+](CCCCS(=O)(=O)[O-])c2ccc3ccccc3c21` [ICG, indocyanine green], for which the “risk of anaphylactic shock” value is given as 0.05–0.2%.
